Among the data in a melting point compilation (Tetko et al.; mined from patent text by program, amines drawn as free bases though some values may be those of a salt) are melting point values, retold here.

One may read the melting point as the temperature, or range, at which the solid turns liquid. `CC(=O)N1CCC2(CC1)CN=C(c1cc3sc(C)c(N(C)S(=O)(=O)c4cccs4)c3[nH]1)S2` returned a melting point of 231 °C.

With `CC(C)Sc1sc(-c2cc[nH]n2)c2c1C(=O)CC(C)(C)C2`, the melting point lay in the range of 195 to 198 °C.

With `O=[N+]([O-])c1ccc2nnn(OS(=O)(=O)c3ccccc3)c2c1`, the melting point lay in the range of 122 to 124 °C.

Compound `CCCC1=C(C(=O)OCC)C(c2cc(Cl)ccc2Cl)c2c[nH]nc2N1` (stereo not given) gave a melting point of 162 °C. In the case of `CC(C)c1cc(NC(=O)N2CCN(c3ccnc(-c4cccc(F)c4F)n3)CC2)nnc1Cl` it was 192 to 193 °C.

For the compound `COc1cc(C(=O)O)ccc1Cn1cc(CCC(=O)N(C)C)c2ccc(CCC(=O)N(C)C)cc21`, the melting point is 216 to 218 °C. Then `COc1ccc(C(=O)[C@H]2CC=CC[C@H]2C(=O)O)cc1Br` (relative stereo), with 201 to 204 °C; and `CCCCC[C@H]1CC[C@H](C=CCCc2ccc(O)cc2)CC1`, with 89 to 90 °C. Then `COc1cc2nc(NC3CCC(N(C)C)CC3)c(-c3ccccn3)nc2cc1OC` (stereo not given), with 168 to 171 °C; and `COc1ccc(NC(=O)c2ccc(Br)cc2)cc1N1CCN(C)CC1`, with 158 to 160 °C.

As for `O=C(C(=Cc1cc(O)c(O)c([N+](=O)[O-])c1)C(=O)C1CC1)C1CC1`, the melting point is 159 to 162 °C. In the case of `CCc1nnc(-c2ncc3[nH]c4cccc(OCc5ccccc5)c4c3c2COC)o1` it was 230 °C. Then `CCOC(=O)c1cn2c(nc1=O)CCC2`, with 59 to 60 °C.

As to `CCOC(=O)c1c[nH]c2ccc(OC3CCN(C)CC3)nc12`, the melting point came out at 232 °C.

Take `CN1C[C@@H](O)[C@H](Oc2ccccc2)C1` (relative stereo): the melting point lay within 89 to 90 °C.

The compound `CC(C)(C)OC(=O)Nc1ccc(O)c2ccccc12` gave a melting point of 172 to 174 °C. `Cn1cc(C(=O)NCCC2CCN(S(=O)(=O)NC(=O)NC3CCCCC3)CC2)c(=O)n(C)c1=O` had a melting point of 205 to 207 °C. In the case of `CCCc1c(OCCCOc2ccc(-c3cocn3)c(OC)c2CCC)ccc2c1OC(C(=O)O)CC2` (stereo not given) it was 136 to 139 °C; in that of `CCn1ncc2c(NC3CCc4ccccc43)c3ccccc3nc21` (stereo not given), 233 to 235 °C. Then `Cc1cccc(S(=O)(=O)Nc2cc(C)c(S(=O)(=O)C[N+](=O)[O-])c(C)c2)c1`, with 179 to 181 °C. Then `NC=C(C=O)c1cccc(C(F)(F)F)c1`, with 63 to 70 °C; and `CC(C)(CO)C(O)(Cn1cncn1)c1ccc(Cl)cc1` (stereo not given), with 120 to 135 °C. As to `CC(C)(C)C(=O)c1c[nH]c2ncc(-c3cccc(N)c3)nc12`, the melting point was in the range of 239 to 241 °C.

Compound `C[Si](C)(C)CC(O)(Cn1cncn1)c1ccccc1` (stereo not given) showed a melting point of 86 to 87 °C. Then `Cc1cc(NCCNc2cc(C)[nH]n2)n[nH]1`, with 255 to 257 °C.

Regarding `CCCCc1nn(-c2cc(N)ccc2Br)c(=O)n1Cc1ccc(-c2ccccc2S(=O)(=O)NC(C)(C)C)cc1F`, the melting point lay in the range of 103 to 105 °C. Then `Nc1c2c(nc3cc(Cl)ccc13)CCCC2=O`, with 285 to 287 °C; and `Cc1ccc2c(NCc3ccc(NC(=O)C4CCN(Cc5ccc(F)c(F)c5)CC4)cc3)nc(N(C)C)nc2c1`, with 97 to 99 °C; and `COc1ccc2nc(-c3cc(C)c(OCCN4CCCC4)c(C)c3)[nH]c(=O)c2c1`, with 201 to 203 °C. In the case of `CNNC(=O)OC(C)(C)C` it was 50 °C. As for `O=c1cc(CO)occ1OCCC12CC3CC(CC(C3)C1)C2`, the melting point lay within 155 to 157 °C. `COc1ccnc2c1C(=O)c1c(-c3ccccc3NC(=O)C(F)(F)F)ccnc1C2=O` yielded a melting point of 158 °C.

For `Clc1ccc2c(c1)C(c1ccccc1)Nc1nncn1-2` (stereo not given), the melting point was in the range of 242 to 244 °C. For the compound `COCc1cc(N)no1`, the melting point fell in the range of 49 to 52 °C. In the case of `O=C(c1ccccc1)c1cc(Cl)ccc1C=CCN1C(=O)c2ccccc2C1=O` it was 70 to 72 °C; in that of `Cc1c(CNC(C)C)ncn1C(c1ccccc1)(c1ccccc1)c1ccccc1`, 150 to 154 °C; in that of `CC(C)(C)OC(=O)Nc1ccc(C#Cc2ccccc2)cc1[N+](=O)[O-]`, 146 to 148 °C. In the case of `COc1cccc(C#Cc2ccccc2)c1` it was 70 °C; in that of `O=C(c1cccc(Cl)c1)c1ccccc1Nc1ncccc1[N+](=O)[O-]`, 124 to 125 °C; in that of `COCCc1nc2c(N)nc3cc(OCc4cccc([N+](=O)[O-])c4)ccc3c2n1CC(C)(C)O`, 125 to 127 °C. In the case of `COc1cc(Oc2cccc(C(F)(F)F)c2)nc(C(=O)NCCSCCF)c1` it was 82 to 84 °C; in that of `COc1ccc2c(c1)CCC1C2CCC2(C)C1CCC2N(C=O)CCCO` (stereo not given), 159 to 161 °C; in that of `COC(=O)C1=C(O)C(=O)O[C@@H]1C`, 94 to 96 °C. For `O=C1Cc2ccccc2C(c2ccccc2)CN1` (stereo not given), the melting point fell in the range of 154 to 155 °C.

`CC(=O)Nc1ccc(-c2cc(C(C)(C)C)c(O)c(C(C)(C)C)c2)cc1` showed a melting point of 173 to 174 °C. Then `O=C(CN1CCC(Cc2ccc(F)cc2)CC1)Nc1ccc2[nH]c(=O)oc2c1`, with 228 to 231 °C; and `Cc1oc(-c2ccccc2)nc1CCC(=O)c1ccc(C=C2SC(=O)NC2=O)cc1`, with 224 to 225 °C; and `CCOC(=O)c1ccc(OCCCCCCCCCCCCCCCCCCCCOc2ccc(Cl)cc2)cc1`, with 78 to 80 °C. Then `O=c1oc2ccccc2n2cnc(-c3noc(C4CC4)n3)c12`, with 234 to 236 °C; and `CS(=O)(=O)N1CCN([C@@H](CNC(=O)c2ccc(OCc3cccc4ccccc34)cc2)C(=O)NO)CC1`, with 170 °C. In the case of `COc1ccc(C=CC(=O)Nc2ccc(C(C)(C)C)cc2)cc1` it was 158 to 160 °C; in that of `CCOC(=O)C1=C(C)NC(N)=C(C(=O)OCC)C1c1ccccc1OC` (stereo not given), 170 °C.

The compound `O=C(Nc1nc(-c2ccco2)c(-c2ccncc2)s1)c1ccnc(CN2CCC(O)CC2)c1` showed a melting point of 203 to 208 °C. Then `NC(=O)c1ccc(N2CCN(Cc3cn4cc(Cl)ccc4n3)CC2)c(F)c1`, with 253 to 255 °C; and `CCC(=O)N[C@@H]1CCc2ccc(OC)cc2[C@H]1O`, with 162 to 163 °C. In the case of `O=C(NCCN1CCC(=C(c2ccc(F)cc2)c2ccc(F)cc2)CC1)C1CSC(c2cccnc2)N1` (stereo not given) it was 119 to 121 °C; in that of `CCCCCN1CC[C@@H](c2ccc(Cl)cc2)[C@H](CO)C1` (racemic), 125 to 128 °C; in that of `Cc1cc(=O)c2ccccc2o1`, 71 °C. In the case of `CCOC(=O)C1=C(N)N=C(SC)C(C(=O)OCC)C1c1cccc([N+](=O)[O-])c1` (stereo not given) it was 144 °C. Turning to `Cc1cc(CCCCCOc2ccc(C3OC=CO3)cc2)on1`, the melting point fell in the range of 38 to 39 °C. Turning to `O=C(O)c1ccccc1OCCN1CCC(c2cn(Cc3ccc(Cl)s3)c3ccccc23)CC1`, the melting point lay within 178 to 179 °C. As to `Cc1ccc(-c2c(C=O)n(C)c(=O)c3ncccc23)cc1`, the melting point fell in the range of 282 to 284 °C. `CC1(C)OC2c3cc(F)ccc3N3CCC2(CC3)O1` (stereo not given) yielded a melting point of 120 to 122 °C.

Turning to `CCCc1nn(-c2ccc(C(F)(F)F)cn2)cc1CCCOc1cccc(CC(=O)O)c1`, the melting point was in the range of 106 to 107 °C.

`NC(=O)[C@@H](CCC(F)(F)F)N(Cc1ccc(-c2ncon2)cc1F)S(=O)(=O)c1ccc(Cl)cc1` showed a melting point of 66 to 68 °C. Then `O=C(CO)c1cc(O)c(O)c([N+](=O)[O-])c1`, with 208 to 210 °C; and `CSCCSC1=C(O)CC(C)(C)CC1=O`, with 57 to 59 °C. `Oc1cccc(CCc2cc(-c3ccccc3)n(-c3ccccc3)n2)c1` showed a melting point of 211 to 212 °C. Take `O=C(O)Cc1c([N+](=O)[O-])ccc2c1O[C@@H](CNCc1ccccc1)CO2`: the melting point was determined as 206 °C. Then `CC(C)CNC1NC(=O)N(c2cccs2)C(=O)N1`, with 265 to 268 °C; and `CN1CCN(C(=O)CC2(C)OCCc3c2[nH]c2ccccc32)CC1` (stereo not given), with 80 to 84 °C. In turn, `CN(N)c1nc(=S)[nH]c2[nH]cnc12` yielded a melting point of 245 °C. In the case of `O=C(O)C1=Cc2cc(Cl)c(Oc3cccc(Cl)n3)cc2OC1C(F)(F)F` (stereo not given), the melting point was in the range of 226 to 227 °C. Then `NC(=S)C1CCCc2cc3c(nc21)CCC3` (stereo not given), with 118 °C; and `CCCCCCc1ccc(C(=O)Nc2ccc3cc(CN4CCCC4)cnc3c2C)cc1`, with 116 °C; and `CCOC(=O)C=Cc1ccc(O)cc1`, with 70 to 71 °C. Take `CCOc1c(C(=O)O)cnc2nn(C)cc12`: the melting point was 222 to 225 °C.

Consider `CN(Cc1ccccc1)C1c2ccccc2CC1O` (stereo not given), for which the melting point stood at 64 °C.

`c1ccc(CN2CCN(Cc3n[nH]c4ccccc34)CC2)cc1` had a melting point of 130 to 131 °C. Then `CC(=NOCCOc1ccc(CC2SC(=O)NC2=O)cc1)c1ccc(-c2ccccc2)cn1` (stereo not given), with 136 to 138 °C; and `CN1c2cscc2CNc2ccccc21`, with 125 to 127 °C; and `CCCCCCCN1C(=O)C2CC2(c2ccc(N)cc2)C1=O` (stereo not given), with 78 to 79 °C.

As for `CC1(C2=C(O)C(=O)c3ccccc3C2=O)CCCCC1`, the melting point was 79 °C. In the case of `COC(=O)c1cccc(Nc2nc(-c3cccnc3)nc3ccccc23)c1` it was 228 to 245 °C; in that of `O=C1[C@@H](O)[C@@H]2OCCC[C@@H]2N1Cc1ccccc1` (relative stereo), 136 to 138 °C. In the case of `CC(=O)Nc1ccc2c(c1)OCc1cc([N+](=O)[O-])ccc1C2=O` it was 171 °C.

The compound `COc1ccc(-c2nn(CC(C)C)c(=O)cc2-c2ccc(OC)c(F)c2)cc1` showed a melting point of 125 °C. In the case of `O=C(CNC(=O)c1n[nH]cc1NC(=O)c1ccccn1)c1ccccc1` it was 270 to 271 °C.

For `CC[C@@H]1CN(c2c(F)cc3c(=O)c(C(=O)O)cn4c3c2OC[C@@H]4C)C[C@H]1N`, the melting point lay in the range of 189 to 191 °C. In the case of `CC(C)c1ccc2c(c1)c(SC1CCCCC1)c(CC(C)(C)C(=O)O)n2Cc1ccc(Cl)cc1` it was 166 to 168 °C.
